In patent US20240360415A1, “MUSCLE CELLS DIFFERENTIATED FROM PLURIPOTENT CELLS, METHODS OF PRODUCING SAME AND USE THEREOF” (ALEPH FARMS LTD., priority 2021, published 2024):

Tested on: Bovine pluripotent stem cells (PSCs)
Experiment: Immunofluorescence staining of Myosin heavy chain (MF-20 antibody) after total of 11 days of differentiation
Format: cell-based
Conditions: 3D suspension 4 days with factors (CHIR 10 μM; Activin A 20 ng/ml or TGFβ 2 ng/ml), then 7 days 2D serum-free without factors; FIG. 3A-3C
Experimental: Bovine skeletal muscle cells in 2D culture were subjected to immunofluorescence analysis as following: The cells were fixed using 4% Paraformaldehyde (PFA; […] Nuclei were stained using […] of DAPI (Sigma). The imaging was performed using EVOS FL Auto 2 Fluorescent Microscopy (ThermoFisher). Bovine pluripotent stem cells (PSCs) were grown in 2D and/or 3D culture. […] The suspension culture conditions (“3D culture conditions”) include ultra-low adherent (ULA) 6-well plate (Corning) placed at 38.5° C. under 5% CO2 and humidity of >75% under rotation. Medium was refreshed using the skeletal Muscle Precursor medium (without RI) and the formed aggregates were allowed to differentiate for a total of 4 days. The aggregates comprising skeletal muscle committed cells were collected and seeded on in a tissue culture Vitronectin (0.005 mg/ml) pre-coated plate (“2D conditions”) in serum free growth medium. […] Medium was refreshed using the skeletal Muscle Precursor medium (without RI) and the formed aggregates were allowed to differentiate for a total of 4 days. After 4 days, the cells comprising skeletal muscle committed cells were collected and seeded in a 2D culture conditions as described for the aggregate obtained from 3D culture conditions described above.

Cc1cnc(-c2cnc(NCCNc3ccc(C#N)cn3)nc2-c2ccc(Cl)cc2Cl)[nH]1 [CHIR-99021, 6-[[2-[[4-(2,4-Dichlorophenyl)-5-(5-methyl-1H-imidazol-2-yl)-2-pyrimidinyl]amino]ethyl]amino]-3-pyridinecarbonitrile]
Myosin heavy chain positive (skeletal muscle) cells by immunofluorescence: no Myosin positive cells
